The target of one assay is cdk4/cyclin D1 (Homo sapiens, UniProt P11802). Nature of the assay: Cyclin-dependent kinase assay, cdk4/cyclin D1. It counts as biochemical. The settings on record: cyclin D1/cdk4; GST-pRb substrate, 10 µM ATP.
Another assay concerns MDA-MB-435. Nature of the assay: In vitro proliferation assay (MTT), MDA-MB-435. It is filed as cell-based, human. As to conditions: Homo sapiens, MDA-MB-435, MTT assay; value (SD, n) where given; read-out: MB-435 Breast (IC50 µM). The method, boiled down: (§1)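 Step one: plate 1000 to 2500 cells per well and let them recover overnight. Step two: treat with compound for 3 days. Step three: add MTT, dissolve dye in DMSO, read absorbance at 570 nm and determine IC50.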

The test system of a further assay is PC-3. The assay can be described thus: In vitro proliferation assay (MTT), PC-3. It is filed as cell-based, human. As to conditions: Homo sapiens, PC-3, MTT assay; value (SD, n) where given; read-out: PC-3 Prostate (IC50 µM). The method, boiled down: as §1
Another assay concerns the target cdk1/cyclin B (Homo sapiens, UniProt P06493). Nature of the assay: Cyclin-dependent kinase assay, cdk1/cyclin B. As to conditions: CDK1 IC50, nM, Histone H1, 10 µM ATP.
Another assay concerns the target cdk2/cyclin E (Homo sapiens, UniProt P24941). The assay can be described thus: Cyclin-dependent kinase assay, cdk2/cyclin E. The settings on record: CDK2 IC50, nM, GST-pRb substrate, 10 µM ATP.

Structures can show the parent of a compound that is named as a salt.

Chain of cdk4/cyclin D1 (P11802 whole entry): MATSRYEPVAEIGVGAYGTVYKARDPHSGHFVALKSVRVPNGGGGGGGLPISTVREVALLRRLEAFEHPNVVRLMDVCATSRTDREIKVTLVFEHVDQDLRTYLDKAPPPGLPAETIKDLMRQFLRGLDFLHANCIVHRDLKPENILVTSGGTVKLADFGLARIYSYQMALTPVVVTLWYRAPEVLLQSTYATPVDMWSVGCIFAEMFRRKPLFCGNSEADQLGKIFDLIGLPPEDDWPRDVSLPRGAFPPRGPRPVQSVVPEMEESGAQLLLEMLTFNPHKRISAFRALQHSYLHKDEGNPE
Chain of cdk4/cyclin D1 (P24385 whole entry partner): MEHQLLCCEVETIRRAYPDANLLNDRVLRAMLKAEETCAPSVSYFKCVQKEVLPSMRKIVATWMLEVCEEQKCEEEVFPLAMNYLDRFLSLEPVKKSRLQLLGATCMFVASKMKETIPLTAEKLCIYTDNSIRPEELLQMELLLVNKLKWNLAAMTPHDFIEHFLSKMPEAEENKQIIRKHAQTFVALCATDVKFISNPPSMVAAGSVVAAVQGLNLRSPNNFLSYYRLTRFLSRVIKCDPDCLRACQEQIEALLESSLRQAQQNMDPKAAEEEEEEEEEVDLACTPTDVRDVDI
Chain of cdk1/cyclin B (P06493 whole entry): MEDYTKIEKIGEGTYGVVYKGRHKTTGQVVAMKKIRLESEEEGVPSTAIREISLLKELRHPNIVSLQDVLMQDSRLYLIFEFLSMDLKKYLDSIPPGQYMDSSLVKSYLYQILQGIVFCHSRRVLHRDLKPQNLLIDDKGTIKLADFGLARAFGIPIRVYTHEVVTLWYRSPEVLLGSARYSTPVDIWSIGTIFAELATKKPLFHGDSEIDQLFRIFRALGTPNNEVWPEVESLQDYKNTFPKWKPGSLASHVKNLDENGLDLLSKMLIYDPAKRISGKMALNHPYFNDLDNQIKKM
Chain of cdk1/cyclin B (P14635 whole entry partner): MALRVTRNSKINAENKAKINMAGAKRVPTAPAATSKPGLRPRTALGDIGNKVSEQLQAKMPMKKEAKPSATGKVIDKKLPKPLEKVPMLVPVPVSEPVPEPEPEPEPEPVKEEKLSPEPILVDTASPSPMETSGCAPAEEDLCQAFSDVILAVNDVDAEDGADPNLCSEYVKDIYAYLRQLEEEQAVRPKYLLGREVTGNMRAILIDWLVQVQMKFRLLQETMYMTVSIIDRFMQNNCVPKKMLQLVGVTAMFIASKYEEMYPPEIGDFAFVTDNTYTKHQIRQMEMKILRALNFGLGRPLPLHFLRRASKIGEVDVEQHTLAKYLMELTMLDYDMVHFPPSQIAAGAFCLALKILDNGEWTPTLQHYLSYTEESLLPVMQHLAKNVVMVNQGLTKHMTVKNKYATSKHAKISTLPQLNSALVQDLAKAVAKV
Experimental for cdk2/cyclin E: The insect cell (Sf9) expression is optimized for each of the CDK/cyclin pairs according to the manufacturer's protocols (Life Technologies).
The viruses are added to the cells and the culture is incubated at 27°C for the desired time. The cells are harvested by centrifugation at 3000 rpm for 10 minutes. The cells are snap frozen on dry ice and stored at - 80°C.
Cell extracts are made following a standard procedure. The cell pellet is resuspended in lysis buffer (50 mM HEPES, pH 8.0, 10 mM MgCl2, 1 mM DTT, 2.5 mM EGTA, 1 mM EDTA, 10 mM β-glycerophosphate, 1 mM sodium vanadate, 1 mM sodium fluoride, 1 x Protease inhibitor cocktail). The cells are lysed using the microfluidizer (Microfluidics) for 20 minutes. Cell debris is removed by centrifugation at 100,000 x g. The cell extracts are aliquoted in 1 ml aliquots, frozen on dry ice, and stored at -80°C.
The kinase reactions are performed following a standard procedure. The enzyme and inhibitor are diluted in kinase buffer (50 mM HEPES, pH 8.0, 10 mM MgCl2, 2.5 mM EGTA, 10 mM β-glycerophosphate, 1 mM sodium vanadate, 1 mM sodium fluoride, and 1 mM DTT) and pre-incubated for 30 minutes. The cdk2 and cdk4 enzyme activities are assayed using 500 ng of the GST-pRb substrate (see description below) in the presence of 10 µM cold ATP and 1 µCi of [γ-^33P] ATP for 30 minutes at room temperature. […] The reactions are terminated by the addition of 50 µL of 10 mM cold ATP to stop the reactions. The reactions are transferred to a pre-soaked 96-well multi-screen plate containing 30 µL of 100% TCA per well. After incubation for one hour at room temperature, the plates are washed twice with 200 µl of 20% TCA, followed by 200 µl of 10% TCA and finally with 200 µl of 5% TCA. After drying the plates at room temperature, the filter plates are placed in adapter plates (Packard) and 40 µl of Microscint-O® (Packard) is added to each well.

As for `N[C@H]1CC[C@H](Nc2nc(NC3CCN(S(=O)(=O)c4ccc(I)cc4)CC3)c3ncn(C4CCCC4)c3n2)CC1` [compound 122, trans-N^2-(4-Amino-cyclohexyl)-9-cyclopentyl-N^6-[1-(4-iodo-benzenesulfonyl)-piperidin-4-yl]-9H-purine-2,6-diamine dihydrochloride], the IC50 on cdk4/cyclin D1 stood at 590 nM; in the assay on MDA-MB-435 it was 0.48 µM; with PC-3, 0.65 µM; at cdk1/cyclin B, 10 nM; against cdk2/cyclin E, 38 nM.

In the case of `Cc1ccc(S(=O)(=O)N2CCC(Nc3nc(N[C@H]4CC[C@H](N)CC4)nc4c3ncn4C3CCCC3)CC2)cc1` [compound 124, trans-N^2-(4-Amino-cyclohexyl)-9-cyclopentyl-N^6-[1-(toluene-4-sulfonyl)-piperidin-4-yl]-9H-purine-2,6-diamine dihydrochloride], the IC50 against cdk4/cyclin D1 was 77 nM; in the assay with MDA-MB-435, 0.44 µM; in the assay with PC-3 it was 0.56 µM; on cdk1/cyclin B it was 10 nM; on cdk2/cyclin E, 26 nM.

In the case of `CC(C)S(=O)(=O)N1CCC(Nc2nc(N[C@H]3CC[C@H](N)CC3)nc3c2ncn3C2CCCC2)CC1` [compound 125, trans-N^2-(4-Amino-cyclohexyl)-9-cyclopentyl-N^6-[1-(propane-2-sulfonyl)-piperidin-4-yl]-9H-purine-2,6-diamine dihydrochloride], the half-inhibitory concentration (IC50) on cdk4/cyclin D1 is 62 nM; with MDA-MB-435 it was 1.03 µM; in the assay with PC-3, 1.29 µM; against cdk1/cyclin B, 180 nM; against cdk2/cyclin E, 38 nM.

As for `N[C@H]1CC[C@H](Nc2nc(NC3CCN(S(=O)(=O)c4ccc(C(=O)O)cc4)CC3)c3ncn(C4CCCC4)c3n2)CC1` [compound 126, trans-4-{4-[2-(4-Amino-cyclohexylamino)-9-cyclopentyl-9H-purin-6-ylamino]-piperidine-1-sulfonyl}-benzoic acid dihydrochloride], the IC50 at cdk4/cyclin D1 turned out to be 55 nM; in the assay on MDA-MB-435, 19.7 µM; in the assay on PC-3 it was 16.8 µM; against cdk1/cyclin B it was 20 nM; at cdk2/cyclin E, 6 nM.

For `N[C@H]1CC[C@H](Nc2nc(NC3CCN(S(=O)(=O)c4cccc([N+](=O)[O-])c4)CC3)c3ncn(C4CCCC4)c3n2)CC1` [compound 127, trans-N^2-(4-Amino-cyclohexyl)-9-cyclopentyl-N^6-[1-(3-nitro-benzenesulfonyl)-piperidin-4-yl]-9H-purine-2,6-diamine dihydrochloride], the IC50 was determined as 48 nM at cdk4/cyclin D1; 0.61 µM with MDA-MB-435; 0.62 µM with PC-3; 14 nM against cdk1/cyclin B; 17 nM against cdk2/cyclin E.

Consider `CCCCS(=O)(=O)N1CCC(Nc2nc(N[C@H]3CC[C@H](N)CC3)nc3c2ncn3C2CCCC2)CC1` [compound 129, trans-N^2-(4-Amino-cyclohexyl)-N^6-[1-(butane-1-sulfonyl)-piperidin-4-yl]-9-cyclopentyl-9H-purine-2,6-diamine dihydrochloride], for which the IC50 against cdk4/cyclin D1 came out at 60 nM; with MDA-MB-435 it was 0.46 µM; with PC-3, 0.64 µM; on cdk1/cyclin B, 60 nM; against cdk2/cyclin E it was 9 nM.

For `CC(C)(C)c1ccc(S(=O)(=O)N2CCC(Nc3nc(N[C@H]4CC[C@H](N)CC4)nc4c3ncn4C3CCCC3)CC2)cc1` [compound 130, trans-N^2-(4-Amino-cyclohexyl)-N^6-[1-(4-tert-butyl-benzenesulfonyl)-piperidin-4-yl]-9-cyclopentyl-9H-purine-2,6-diamine dihydrochloride], the 50% inhibitory concentration (IC50) at cdk4/cyclin D1 was 159 nM; in the assay on MDA-MB-435 it was 0.8 µM; in the assay with PC-3, 2.29 µM; on cdk1/cyclin B it was 8 nM; against cdk2/cyclin E, 53 nM.

With `CCCS(=O)(=O)N1CCC(Nc2nc(N[C@H]3CC[C@H](N)CC3)nc3c2ncn3C2CCCC2)CC1` [compound 131, trans-N^2-(4-Amino-cyclohexyl)-N^6-[1-(propane-1-sulfonyl)-piperidin-4-yl]-9-cyclopentyl-9H-purine-2,6-diamine dihydrochloride], the concentration for half-maximal inhibition (IC50) worked out at 70 nM against cdk4/cyclin D1; 0.89 µM in the assay with MDA-MB-435; 1.48 µM with PC-3; 100 nM against cdk1/cyclin B; 17 nM against cdk2/cyclin E.

As for `N[C@H]1CC[C@H](Nc2nc(NC3CCN(S(=O)(=O)CC(F)(F)F)CC3)c3ncn(C4CCCC4)c3n2)CC1` [compound 133, trans-N^2-(4-Amino-cyclohexyl)-9-cyclopentyl-N^6-[1-(2,2,2-trifluoro-ethanesulfonyl)-piperidin-4-yl]-9H-purine-2,6-diamine dihydrochloride], the IC50 at cdk4/cyclin D1 amounted to 85 nM; in the assay on MDA-MB-435, 9.1 µM; in the assay with PC-3, 8.97 µM; at cdk1/cyclin B, 200 nM; at cdk2/cyclin E, 55 nM.

With `N[C@H]1CC[C@H](Nc2nc(NC3CCN(S(=O)(=O)c4ccc(OC(F)(F)F)cc4)CC3)c3ncn(C4CCCC4)c3n2)CC1` [compound 134, trans-N^2-(4-Amino-cyclohexyl)-9-cyclopentyl-N^6-[1-(4-trifluoromethoxy-benzenesulfonyl)-piperidin-4-yl]-9H-purine-2,6-diamine dihydrochloride], the 50% inhibitory concentration (IC50) amounted to 84 nM at cdk4/cyclin D1; 0.46 µM with MDA-MB-435; 0.76 µM in the assay on PC-3; 200 nM on cdk1/cyclin B; 35 nM on cdk2/cyclin E.

On to `N[C@H]1CC[C@H](Nc2nc(NC3CCN(S(=O)(=O)c4cccc(C(=O)O)c4)CC3)c3ncn(C4CCCC4)c3n2)CC1` [compound 135, dihydrochloride], for which the 50% inhibitory concentration (IC50) against cdk4/cyclin D1 worked out at 62 nM; with MDA-MB-435, 3.38 µM; in the assay on PC-3 it was 4.05 µM; on cdk1/cyclin B, 80 nM; on cdk2/cyclin E it was 4 nM.

On to `N[C@H]1CC[C@H](Nc2nc(NC3CCN(S(=O)(=O)c4ccccc4Br)CC3)c3ncn(C4CCCC4)c3n2)CC1` [compound 136, trans-N^2-(4-Amino-cyclohexyl)-9-cyclopentyl-N^6-[1-(2-bromo-benzenesulfonyl)-piperidin-4-yl]-9H-purine-2,6-diamine dihydrochloride], for which the IC50 stood at 10 nM against cdk4/cyclin D1; 0.44 µM in the assay with MDA-MB-435; 0.68 µM in the assay with PC-3; 50 nM against cdk1/cyclin B; 37 nM against cdk2/cyclin E.

In the case of `COc1ccc(S(=O)(=O)N2CCC(Nc3nc(N[C@H]4CC[C@H](N)CC4)nc4c3ncn4C3CCCC3)CC2)cc1OC` [compound 137, trans-N^2-(4-Amino-cyclohexyl)-9-cyclopentyl-N^6-[1-(3,4-dimethoxy-benzenesulfonyl)-piperidin-4-yl]-9H-purine-2,6-diamine dihydrochloride], the concentration for half-maximal inhibition (IC50) at cdk4/cyclin D1 came to 144 nM; with MDA-MB-435, 0.47 µM; with PC-3, 1.15 µM; against cdk1/cyclin B, 26 nM; at cdk2/cyclin E, 7 nM.

Consider `N[C@H]1CC[C@H](Nc2nc(NC3CCN(S(=O)(=O)c4ccc(Cl)c(Cl)c4)CC3)c3ncn(C4CCCC4)c3n2)CC1` [compound 138, trans-N^2-(4-Amino-cyclohexyl)-9-cyclopentyl-N^6-[1-(3,4-dichloro-benzenesulfonyl)-piperidin-4-yl]-9H-purine-2,6-diamine dihydrochloride], for which the IC50 at cdk4/cyclin D1 amounted to 69 nM; with MDA-MB-435, 0.54 µM; with PC-3, 1.16 µM; against cdk1/cyclin B, 40 nM; at cdk2/cyclin E, 60 nM.

On to `CCS(=O)(=O)N1CCC(Nc2nc(N[C@H]3CC[C@H](N)CC3)nc3c2ncn3C2CCCC2)CC1` [compound 139, trans-N^2-(4-Amino-cyclohexyl)-9-cyclopentyl-N^6-(1-ethanesulfonyl-piperidin-4-yl)-9H-purine-2,6-diamine dihydrochloride], for which the half-maximal inhibitory concentration (IC50) was determined as 64 nM on cdk4/cyclin D1; 1.19 µM in the assay with MDA-MB-435; 1.13 µM in the assay on PC-3; 23 nM at cdk1/cyclin B; 6 nM against cdk2/cyclin E.

For the molecule `N[C@H]1CC[C@H](Nc2nc(NC3CCN(S(=O)(=O)c4ccc(Cl)c([N+](=O)[O-])c4)CC3)c3ncn(C4CCCC4)c3n2)CC1` [compound 140, trans-N^2-(4-Amino-cyclohexyl)-N^6-[1-(4-chloro-3-nitro-benzenesulfonyl)-piperidin-4-yl]-9-cyclopentyl-9H-purine-2,6-diamine dihydrochloride], the concentration for half-maximal inhibition (IC50) turned out to be 75 nM against cdk4/cyclin D1; 2.76 µM in the assay on MDA-MB-435; 4.56 µM with PC-3; 36 nM on cdk1/cyclin B; 41 nM against cdk2/cyclin E.

With `CN(C)c1cccc2c(S(=O)(=O)N3CCC(Nc4nc(N[C@H]5CC[C@H](N)CC5)nc5c4ncn5C4CCCC4)CC3)cccc12` [compound 141, trans-N^2-(4-Amino-cyclohexyl)-9-cyclopentyl-N^6-[1-(5-dimethylamino-naphthalene-1-sulfonyl)-piperidin-4-yl]-9H-purine-2,6-diamine dihydrochloride], the IC50 was 66 nM against cdk4/cyclin D1; 0.86 µM with MDA-MB-435; 1.49 µM with PC-3; 27 nM against cdk1/cyclin B; 61 nM at cdk2/cyclin E.

Take `COc1ccc(S(=O)(=O)N2CCC(Nc3nc(N[C@H]4CC[C@H](N)CC4)nc4c3ncn4C3CCCC3)CC2)cc1` [compound 142, trans-N^2-(4-Amino-cyclohexyl)-9-cyclopentyl-N^6-[1-(4-methoxy-benzenesulfonyl)-piperidin-4-yl]-9H-purine-2,6-diamine dihydrochloride]: the IC50 on cdk4/cyclin D1 was 47 nM; with MDA-MB-435 it was 0.38 µM; in the assay with PC-3, 0.61 µM; against cdk1/cyclin B, < 5 nM; at cdk2/cyclin E it was 9 nM.

These data come from patent publication EP1377579B1 (Aventis Pharmaceuticals Inc., priority 2000, dated 2002).
